Measured values published in patent publication US12527779B2, “Prostaglandin E2 (PGE2) EP4 receptor antagonists” (Domain Therapeutics, priority 2019, dated 2026).
Structures can show the parent of a compound that is named as a salt.

target: T1, human EP4 (hEP4) receptor (Homo sapiens, UniProt P35408); test: In vitro human EP4 functional antagonist activity using BRET biosensors (cAMP EPAC biosensor, TCS2510 stimulation); type: cell-based; conditions: antagonist activity vs EC60 TCS2510, hEP4 in HEK-293 T cells
T1 construct: expressed in transfected cells; host or cells: HEK-293 T cells, transient co-transfection with polyethylenimine
T1 sequence (P35408 whole entry): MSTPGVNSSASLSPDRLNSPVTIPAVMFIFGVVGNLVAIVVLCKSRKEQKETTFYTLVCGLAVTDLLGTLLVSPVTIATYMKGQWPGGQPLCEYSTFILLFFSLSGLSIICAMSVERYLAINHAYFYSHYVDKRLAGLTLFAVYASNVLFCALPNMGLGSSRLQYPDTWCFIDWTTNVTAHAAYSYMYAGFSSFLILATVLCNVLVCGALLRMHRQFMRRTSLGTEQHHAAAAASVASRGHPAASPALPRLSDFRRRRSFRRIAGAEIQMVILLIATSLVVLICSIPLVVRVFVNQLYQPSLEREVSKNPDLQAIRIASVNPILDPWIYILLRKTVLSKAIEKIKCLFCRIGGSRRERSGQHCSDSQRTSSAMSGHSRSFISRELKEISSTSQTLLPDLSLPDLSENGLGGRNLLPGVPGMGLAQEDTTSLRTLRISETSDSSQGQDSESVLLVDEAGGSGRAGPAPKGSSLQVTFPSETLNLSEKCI
Description: Examples of the present invention were tested successively for their agonist and antagonist activities on human EP4 (hEP4) receptor transiently over-expressed in HEK-293 T cells. […] The assay used to measure compound activity is based on the BRET technology. The unimolecular cAMP biosensor used to detect intracellular cAMP levels following GPCR stimulation consists of the EPAC protein fused to N- and C-terminal of Luciferase and GFP respectively.
Cell Culture and Transfection: HEK-293 T cells are maintained in Dulbecco's Modified Eagle's Medium supplemented with 10% Foetal Calf Serum, 1% Penicillin/Streptomycin at 37° C./5% CO2. Cells are co-transfected using polyethylenimine (25 kDa linear) with two DNA plasmids encoding hEP4, EPAC fused to luciferase (BRET donor) and to GFP (BRET acceptor). After transfection, cells are cultured (40,000 cells per well) for 48 h at 37° C./5% CO2.
BRET assay: Receptor activity is detected by changes in BRET signal. On the day of the assay, cells are rinsed and incubated in assay buffer (1.8 mM CaCl2, 1 mM MgCl2, 2.7 mM KCl, 137 mM NaCl, 0.4 mM NaH2PO4, 5.5 mM D-Glucose, 11.9 mM NaHCO3, 25 mM Hepes). Then, plates are equilibrated 1 h at 22° C. before adding compounds. Compounds and luciferase substrate are added to the cells using an automated device (Freedom Evo®, Tecan) and BRET readings are collected on EnVision (PerkinElmer) with specific filters (410 nm BW 80 nm, 515 nm BW 30 nm). Agonist and antagonist activities of compounds are consecutively evaluated on the same cell plate. Agonist activity is first measured after 5 min incubation with compound alone on the cells. Then, cells are stimulated by an EC60 TCS2510 concentration and luminescence is recorded for additional 10 min. EC60 TCS2510 concentration is the concentration giving 60% of the maximal TCS2510 response. Agonist or antagonist activities are evaluated in comparison to basal signals evoked by assay buffer or EC60 TCS2510 alone, respectively.
For IC50 determination, a dose-response test is performed using 10 concentrations (ranging over 4.5 logs) of each compound. Dose-response curves are fitted using the sigmoidal dose-response (variable slope) analysis in GraphPad Prism software (GraphPad Software) and IC50 of antagonist activity is calculated. Dose-response experiments are performed in duplicate, in two independent experiments. IC50 values are categorized as following: A: IC50<0.1 μM; B: IC50<1 μM.

| SMILES | IC50 [nM] |
| --- | --- |
| Cc1ccccc1OCCN(C)C1(C(=O)NC2(c3ccc(C(=O)O)cc3)CC2)CCOCC1 [Example 36, 4-[1-[[4-[2-(2-Methylphenoxy)ethyl-methyl-amino]tetrahydropyran-4-carbonyl]amino]cyclopropyl]benzoic acid, hydrochloride] | < 100 |
| C[C@H](NC(=O)C1(N2CC[C@@H](Oc3cccc(C(F)(F)F)c3)C2)CCOCC1)c1ccc(C(N)=O)cc1 [Example 168, 4-[(1S)-1-[[4-[(3R)-3-[3-(Trifluoromethyl)phenoxy]pyrrolidin-1-yl]tetrahydropyran-4-carbonyl]amino]ethyl]benzamide, hydrochloride] | < 100 |
| C[C@H](NC(=O)C1(c2ccc(OCC3CCCCC3)cc2)CCOCC1)c1ccc(C(=O)O)cc1 [Example 89, 4-[(1S)-1-[[4-[4-(Cyclohexylmethoxy)phenyl]tetrahydropyran-4-carbonyl]amino]ethyl]benzoic acid] | < 1000 |
| O=C(O)c1ccc(C2(NC(=O)C3(NCCOc4ccccc4)CCOCC3)CC2)cc1 [Example 24, 4-[1-[[4-(2-Phenoxyethylamino)tetrahydropyran-4-carbonyl]amino]cyclopropyl]benzoic acid, hydrochloride] | < 1000 |
| Cc1cc(C2(NC(=O)C3(N4CC[C@@H](Oc5cccc(C(F)(F)F)c5)C4)CCOCC3)CC2)ccc1C(=O)O [Example 198, (R)-2-Methyl-4-(1-(4-(3-(3-(trifluoromethyl)phenoxy)pyrrolidin-1-yl)tetrahydro-2H-pyran-4-carboxamido)cyclopropyl)benzoic acid, hydrochloride] | < 100 |
| C[C@H](NC(=O)C1(c2ccc(OCc3cccnc3)cc2)CCOCC1)c1ccc(C(=O)O)cc1 [Example 96, 4-[(1S)-1-[[4-[4-(3-Pyridylmethoxy)phenyl]tetrahydropyran-4-carbonyl]amino]ethyl]benzoic acid] | < 1000 |
| C[C@H](NC(=O)C1(N2CC[C@@H](Oc3ccccc3)C2)CCOCC1)c1ccc(C(=O)O)cc1 [Example 152, 4-[(1S)-1-[[4-((3R)-3-Phenoxypyrrolidin-1-yl)tetrahydropyran-4-carbonyl]amino]ethyl]benzoic acid, hydrochloride] | < 100 |

Second part, the compound after the results:

| IC50 [nM] | SMILES |
| --- | --- |
| < 1000 | Cc1cccc([C@H](C)NC(=O)C2(N3CC[C@@H](Oc4cccc(C(F)(F)F)c4)C3)CCOCC2)c1 [Example 194, N—((S)-1-(3-Methylphenyl)ethyl)-4-((R)-3-(3-(trifluoromethyl)phenoxy)pyrrolidin-1-yl)tetrahydro-2H-pyran-4-carboxamide, hydrochloride] |
| < 100 | C[C@H](NC(=O)C(C)(C)N1CC[C@@H](Oc2cccc(Cl)c2)C1)c1ccc(C(=O)O)cc1 [Example 161, hydrochloride] |
| < 100 | CN(CCOc1cccc(OC(F)(F)F)c1)C1(C(=O)NC2(c3ccc(C(=O)O)cc3)CC2)CCOCC1 [Example 43, 4-[1-[[4-[2-(3-Trifluoromethoxyphenoxy)ethyl-methyl-amino]tetrahydropyran-4-carbonyl]amino]cyclopropyl]benzoic acid, hydrochloride] |
| < 100 | C[C@H](NC(=O)C1(N2CC[C@@H](Oc3cccc(C(F)(F)F)c3)C2)CCOCC1)c1ccc(S(C)(=O)=O)cc1 [Example 179, N—((S)-1-(4-(Methylsulfonyl)phenyl)ethyl)-4-((R)-3-(3-(trifluoromethyl)phenoxy)pyrrolidin-1-yl)tetrahydro-2H-pyran-4-carboxamide, hydrochloride] |
| < 100 | C[C@H](NC(=O)C1(N2CC[C@@H](Oc3cccc(C(F)(F)F)c3)C2)CCCCC1)c1ccc(C(=O)O)cc1 [Example 162, 4-[(1S)-1-[[1-[(3R)-3-[3-(Trifluoromethyl)phenoxy]pyrrolidin-1-yl]cyclohexane-1-carbonyl]amino]ethyl]benzoic acid, hydrochloride] |
| < 100 | C[C@H](NC(=O)C1(NCCOc2cccc(C(F)(F)F)c2)CCOCC1)c1ccc(C(=O)O)cc1 [Example 12, 4-[(1S)-1-[[4-[2-[3-(Trifluoromethyl)phenoxy]ethylamino]tetrahydropyran-4-carbonyl]amino]ethyl]benzoic acid] |
